≈ marks a conversion by molar mass, not a printed value.
tested on: Radical scavenging activity; test: Antioxidant activity assessed as DPPH free radical scavenging activity; assay type: functional

Row | Structure (SMILES) | IC50 [µg/mL]
1 | C[C@@H]1O[C@@H](OC[C@H]2O[C@@H](Oc3c(-c4ccc(O)cc4)oc4cc(O)c(O)c(O)c4c3=O)[C@H](O)[C@@H](O)[C@@H]2O)[C@H](O)[C@H](O)[C@H]1O | 43.2 (≈ 70.8 µM)
2 | COc1ccc(O)c(C(C)(C)C)c1.COc1ccc(O)cc1C(C)(C)C [BUTYLATED HYDROXYANISOLE] | 21
3 | C[C@H]1O[C@H](O[C@H]2[C@H](Oc3c(-c4ccc(O)cc4)oc4cc(O)cc(O)c4c3=O)O[C@H](CO)[C@@H](O)[C@@H]2O)[C@@H](O)[C@@H](O)[C@@H]1O | 79.6 (≈ 134 µM)
4 | O=C(O)c1cc(O)c(O)c(O)c1 [GALLIC ACID] | 5 (≈ 29.4 µM)

The next lines start with the values.

Row | IC50 [µg/mL] | Structure (SMILES)
5 | 12 (≈ 39.7 µM) | CC(Cc1ccc(O)c(O)c1)C(C)Cc1ccc(O)c(O)c1 (configuration not stated) [NORDIHYDROGUAIARETIC ACID]
6 | 22 (≈ 125 µM) | O=C1O[C@H]([C@@H](O)CO)C(O)=C1O [ASCORBIC ACID]
7 | 12 (≈ 66.6 µM) | O=C(O)/C=C/c1ccc(O)c(O)c1 [CAFFEIC ACID]

From ChEMBL document CHEMBL1150897, “Antioxidant flavonoid glycosides from Daphniphyllum calycinum” (J Nat Prod, 1998)
